Literature values as cited in US7955629B2, “Method of feeding milk replacer with carnitine” (Land O'Lakes Purina Feed LLC, priority 2005, dated 2011).

How the values were obtained:
[1] = ten month old steers; 0.6 and 1.2 grams per day; forty two day trial
[2] = not given; remark: listed apart in the source
[3] = not given; remark: listed apart in the source

SMILES: C[N+](C)(C)CC(O)CC(=O)[O-] (centres unmarked) [carnitine]
- average daily gain compared to the control (heifers fed 0.6 and 1.2 grams per day, midpoint of the experiment): statistically significantly greater
- average daily weight gain, fed or not fed carnitine (heifers, end of the forty two day experiment): no statistically significant difference
- effectiveness of carnitine (backfat depths) [1]: inconclusive
- Acetate to proprionate ratios ([2]; mature ruminally cannulated steers): not effected
- nitrogen uptake from the rumen ([2]; supplementation at high levels in a high roughage diet): little effect
- milk fat content and milk fat yield ([3]; dosed directly into the abomasum): decreased
- digestible and metabolized energy from the diet ([3]; dosed directly into the rumen or abomasum): tended to increase
- Milk production ([3]; dosed into the rumen or abomasum): not affected
